Key:
HUT cells = assay: HUT cell inhibition assay (WST-1 cell viability); type: cell-based; conditions: 72-96 h
Experimental: (§1) Cancer cell lines (U937 and HUT) growing in log phase were harvested and seeded at 1000-2000 cells/well (100 μl final volume) into 96-well tissue culture plates. Following 24 h of growth cells were treated with Compound. Plates were then re-incubated for a further 72-96 h before a WST-1 cell viability assay was conducted according to the suppliers (Roche Applied Science) instructions.
(§2) Data were expressed as a percentage inhibition of the control, measured in the absence of inhibitor, as follows: % inhibition=100−[(S^i/S^o)×100] where S^i is the signal in the presence of inhibitor and S^o is the signal in the presence of DMSO.
(§3) Dose response curves were generated from 8 concentrations (top final concentration 10 μM, with 3-fold dilutions), using 6 replicates.
(§4) IC50 values were determined by non-linear regression analysis, after fitting the results to the equation for sigmoidal dose response with variable slope (% activity against log concentration of Compound), using Graphpad Prism software.

U937 cells = assay: U937 cell inhibition assay (WST-1 cell viability); type: cell-based
Experimental: as §1, §2, §3, §4

HeLa cells = assay: HeLa cell inhibition assay (sulphorhodamine B cell viability); type: cell-based; conditions: 72 h, SRB
Experimental: HeLa cells growing in log phase were harvested and seeded at 1000 cells/well (200 μl final volume) into 96-well tissue culture plates. Following 24 h of cell growth cells were treated with Compounds (final concentration of 20 μM). Plates were then re-incubated for a further 72 h before a sulphorhodamine B (SRB) cell viability assay was conducted according to the methodology described by Skehan et al, J. Natl. Canc. Inst., 1990, 82, 1107-1112.
Data were expressed as a percentage inhibition of the control, measured in the absence of inhibitor, as follows:— % inhibition=100−[(S^i/S^o)×100] where S^i is the signal in the presence of inhibitor and S^o is the signal in the presence of DMSO.
(§5) IC50 values were determined by non-linear regression analysis, after fitting the results of eight data points to the equation for sigmoidal dose response with variable slope (% activity against log concentration of Compound), using Graphpad Prism software.

[1] = biological target: T1, histone deacetylase activity (HeLa nuclear extract); assay: Histone deacetylase activity (Biomol Fluor de Lys HDAC fluorescent activity assay); type: biochemical; conditions: Fluor de Lys substrate
T1 construct: Histone deacetylase activity from crude nuclear extract derived from HeLa cells was used for screening
Experimental: The ability of compounds to inhibit histone deacetylase activities was measured using the commercially available HDAC fluorescent activity assay from Biomol. In brief, the Fluor de Lys™ substrate, a lysine with an epsilon-amino acetylation, is incubated with the source of histone deacetylase activity (HeLa nuclear extract) in the presence or absence of inhibitor. Deacetylation of the substrate sensitises the substrate to Fluor de Lys™ developer, which generates a fluorophore. Thus, incubation of the substrate with a source of HDAC activity results in an increase in signal that is diminished in the presence of an HDAC inhibitor.
Data are expressed as a percentage of the control, measured in the absence of inhibitor, with background signal being subtracted from all samples, as follows: % activity=[(S^i−B)/(S^o−B)]×100 where S^i is the signal in the presence of substrate, enzyme and inhibitor, S^o is the signal in the presence of substrate, enzyme and the vehicle in which the inhibitor is dissolved, and B is the background signal measured in the absence of enzyme.
as §5
Histone deacetylase activity from crude nuclear extract derived from HeLa cells was used for screening. The preparation, purchased from 4C (Seneffe, Belgium), was prepared from HeLa cells harvested whilst in exponential growth phase. The nuclear extract was prepared according to the methodology described by J. D. Dignam, Nucl. Acid. Res., 1983, 11, 1475-1489, snap frozen in liquid nitrogen and stored at −80° C. The final buffer composition was 20 mM Hepes, 100 mM KCl, 0.2 mM EDTA, 0.5 mM DTT, 0.2 mM PMSF and 20% (v/v) glycerol.

Structure (SMILES)	IC50 (HUT cells) [nM]	IC50 (U937 cells; Homo sapiens, U-937, 72-96 h) [nM]	IC50 (HeLa cells; Homo sapiens) [nM]	IC50 [1] [nM]	IC50 (U937 cells; 72-96 h) [nM]	IC50 (HeLa cells) [nM]
CC(C)C[C@H](NCc1ccc(CNC2CCN(c3ncc(C(=O)NO)cn3)CC2)cc1)C(=O)OC1CCCC1 [Example 27, Cyclopentyl N-{4-[({1-[5-(hydroxycarbamoyl)pyrimidin-2-yl]piperidin-4-yl}amino)methyl]benzyl}-L-leucinate]	< 330	< 330	331 to 3300	< 100		
O=C(NO)c1cnc(N2CCC(CN[C@H](C(=O)OC3CCCC3)C3CCCCC3)CC2)nc1 [Example 18, Cyclopentyl (2S)-cyclohexyl[({1-[5-(hydroxycarbamoyl)pyrimidin-2-yl]piperidin-4-yl}methyl)amino]acetate]	331 to 3300	< 330	331 to 3300	< 100		
O=C(NO)c1cnc(N2CC3C(CN[C@H](C(=O)OC4CCCC4)C4CCCCC4)C3C2)nc1 (stereo partly drawn) [Example 14, Cyclopentyl (2S)-cyclohexyl[({3-[5-(hydroxycarbamoyl)pyrimidin-2-yl]-3-azabicyclo[3.1.0]hex-6-yl}methyl)amino]acetate]	331 to 3300	331 to 3300	331 to 3300	< 100		
O=C(NO)c1cnc(N2CCC(NCc3ccc(CN[C@H](C(=O)OC4CCCC4)c4ccccc4)cc3)CC2)nc1 [Example 31]	331 to 3300			101 to 1000	< 330	331 to 3300
O=C(NO)c1cnc(N2CCC(CNCc3ccc(CN[C@H](C(=O)OC4CCCC4)C4CCCCC4)cc3)CC2)nc1 [Example 38, Cyclopentyl (2S)-cyclohexyl[(4-{[({1-[5-(hydroxycarbamoyl)pyrimidin-2-yl]piperidin-4-yl}methyl)amino]methyl}benzyl)amino]acetate]	331 to 3300	< 330	< 330	< 100		
O=C(NO)c1cnc(N2CC3C(CNCc4ccc(CN[C@H](C(=O)OC5CCCC5)c5ccccc5)cc4)C3C2)nc1 (stereo partly drawn) [Example 35, Cyclopentyl (2S)-[(4-{[({3-[5-(hydroxycarbamoyl)pyrimidin-2-yl]-3-azabicyclo[3.1.0]hex-6-yl}methyl)amino]methyl}benzyl)amino](phenyl)acetate]	331 to 3300	331 to 3300	331 to 3300	< 100		

From patent US8962825B2, “Hydroxamates as inhibitors of histone deacetylase” (GlaxoSmithKline Intellectual Property Development Limited, priority 2006, dated 2015)
